Data: PMC8524858, “Dual inhibition of αvβ6 and αvβ1 reduces fibrogenesis in lung tissue explants from patients with IPF” (Respiratory Research, 2021)

How the values were obtained:
[1] = biological target: T1, αvβ6-induced TGF-β activation (Homo sapiens, UniProt P06756+P18564); experiment: TGF-β co-culture assay, SW-β6 cells with MLEC luciferase reporter cells; type: cell-based; details: integrin αvβ6
T1 construct: expressed in transfected cells; host or cells: SW480 cells stably transfected with β6 (SW-β6), co-cultured with MLEC reporter cells
Description: (§1) SW-β6 cells and MLECs or CHO-αv cells and MLECs were cultured in 96-well plates with test compounds or antibodies for 20 h at 37 °C in a 5% CO2 incubator. […] Measurement of MLEC luciferase production resulting from αvβ6- or αvβ1-mediated TGF-β activation was performed using the Bright-Glo Luciferase Assay System (Promega; Madison, WI, USA) according to manufacturer’s instruction. Luminescence was quantified by a Tecan Spark 10M plate reader. IC50 curves were generated using Dotmatics software suite with five-parameter logistic curve fitting. Geometric mean IC50 was calculated for each compound from multiple independent analyses.

human integrin αvβ6 = biological target: T2, human integrin αvβ6 (Homo sapiens, UniProt P06756+P18564); experiment: Integrin ligand-binding assay, αvβ6 (LAP ligand)
T2 construct: purchased ACROBiosystems or R&D Systems IT6-H52E1 or 3817-AV
T2 sequence (P06756 31-992 limits assumed): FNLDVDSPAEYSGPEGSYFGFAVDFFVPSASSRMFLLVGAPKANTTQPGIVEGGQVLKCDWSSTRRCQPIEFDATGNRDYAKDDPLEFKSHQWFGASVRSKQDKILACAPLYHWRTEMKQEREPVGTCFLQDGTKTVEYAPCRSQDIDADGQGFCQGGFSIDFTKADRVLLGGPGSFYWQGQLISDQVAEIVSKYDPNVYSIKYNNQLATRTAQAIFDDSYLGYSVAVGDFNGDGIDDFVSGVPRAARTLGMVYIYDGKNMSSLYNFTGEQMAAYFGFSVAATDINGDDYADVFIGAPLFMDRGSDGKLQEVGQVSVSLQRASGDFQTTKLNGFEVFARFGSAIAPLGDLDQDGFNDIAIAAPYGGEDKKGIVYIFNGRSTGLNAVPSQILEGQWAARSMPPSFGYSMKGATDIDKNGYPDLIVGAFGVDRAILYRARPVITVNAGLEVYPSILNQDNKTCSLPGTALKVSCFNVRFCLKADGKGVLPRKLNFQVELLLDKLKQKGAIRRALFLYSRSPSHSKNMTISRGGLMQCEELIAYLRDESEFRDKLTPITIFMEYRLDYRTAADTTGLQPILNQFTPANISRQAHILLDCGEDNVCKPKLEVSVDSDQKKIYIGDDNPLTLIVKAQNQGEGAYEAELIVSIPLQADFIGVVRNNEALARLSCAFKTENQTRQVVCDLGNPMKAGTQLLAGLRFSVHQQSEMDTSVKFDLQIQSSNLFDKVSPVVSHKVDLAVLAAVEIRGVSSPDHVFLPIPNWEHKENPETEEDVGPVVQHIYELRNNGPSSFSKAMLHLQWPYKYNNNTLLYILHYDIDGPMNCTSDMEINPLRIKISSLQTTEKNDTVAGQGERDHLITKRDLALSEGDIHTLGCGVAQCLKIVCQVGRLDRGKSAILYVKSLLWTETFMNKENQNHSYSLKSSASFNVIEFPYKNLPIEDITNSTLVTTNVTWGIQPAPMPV
T2 sequence (P18564 22-707 limits assumed): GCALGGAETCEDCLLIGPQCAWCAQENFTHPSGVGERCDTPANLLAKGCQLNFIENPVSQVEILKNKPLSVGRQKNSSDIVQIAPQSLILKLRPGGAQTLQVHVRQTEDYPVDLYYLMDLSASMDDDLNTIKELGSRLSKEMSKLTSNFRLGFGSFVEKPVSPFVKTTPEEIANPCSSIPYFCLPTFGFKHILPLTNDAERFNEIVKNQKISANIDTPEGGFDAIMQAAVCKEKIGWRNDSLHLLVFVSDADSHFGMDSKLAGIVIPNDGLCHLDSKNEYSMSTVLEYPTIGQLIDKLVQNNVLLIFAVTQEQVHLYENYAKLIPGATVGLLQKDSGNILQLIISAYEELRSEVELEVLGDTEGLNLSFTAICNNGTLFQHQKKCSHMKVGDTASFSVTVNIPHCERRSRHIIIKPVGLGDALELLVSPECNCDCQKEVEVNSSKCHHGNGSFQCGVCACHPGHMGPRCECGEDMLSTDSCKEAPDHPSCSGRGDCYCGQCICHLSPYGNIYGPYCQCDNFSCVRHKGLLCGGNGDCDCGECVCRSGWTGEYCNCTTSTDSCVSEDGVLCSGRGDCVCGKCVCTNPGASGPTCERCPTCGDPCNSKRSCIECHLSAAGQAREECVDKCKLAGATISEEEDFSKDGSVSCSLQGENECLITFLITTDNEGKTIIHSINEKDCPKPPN
Description: (§2) Integrin ligand-binding assays were performed similar to that previously described.
(§3) Microplates were coated with recombinant human integrins dissolved in PBS (2 µg/ml, overnight at room temperature). Following removal of the coating solution, plates were washed with PBS. Plates were blocked with 200 µL/well of blocking buffer (2% bovine serum albumin [BSA] in PBS) at 37 °C for 1 h. […] Plates were incubated for 2 h at 25 °C, washed, and incubated for 1 h with biotin-labeled anti-fibronectin or anti-LAP antibodies (for αvβ1 or αvβ6/αvβ8, respectively).

[2] = system: PCLSs prepared from bleomycin-challenged mouse lungs; experiment: Col1a1 expression in PCLSs from bleomycin-challenged mouse lungs; type: cell-based; details: for inhibition of collagen mRNA expression: acutely injured mouse lungs, 3 days, PLN-74809 200 nM, GSK3008348 1000 nM, CWHM-12 1000 nM (Fig. 2B); for IC50: Mus musculus, 72 h, 3 days of treatment, extrapolation from dose-response curve of combined experiments (Fig. S4), read-out: minimum concentration required to reduce Col1a1 mRNA levels by 50%; for effect on Col1a1 gene expression: chronic bleomycin-challenged mouse lungs, 7 days of treatment, nintedanib and pirfenidone at approximate clinical Cmax (Fig. 6C); for concentration for 50% reduction in collagen gene expression relative to concentration approximating Cmax: dose titrations in PCLSs from bleomycin-challenged mouse lungs
From the text: (§4) PCLSs were generated from explanted lung tissue from patients with IPF and cultured as previously described. Mouse PCLSs were generated and cultured as previously described. Messenger ribonucleic acid (mRNA) levels in lysates prepared from snap-frozen tissue slices were quantified via NanoString PlexSet reagents and nCounter SPRINT Profiler (NanoString; Seattle, WA, USA; Additional file 1: Table S2) or TaqMan primers/probes on a Bio-Rad CFX96 thermocycler (Bio-Rad; Hercules, CA, USA; Additional file 1: Table S3).
Mouse PCLSs were generated and cultured based on previously reported methods (E13). Briefly, mice were challenged with bleomycin (Hospira; Lake Forest, IL, USA or Teva; Toronto, ON, Canada), either acutely with a single dose (3 U/kg or 4 U/kg) or chronically with multiple doses (3 U/kg bleomycin followed by four 1 U/kg challenges at 2-week intervals). Fourteen days after the final bleomycin challenge, lungs were harvested and 200 μm-thick slices were cut using a Compresstome VF-300-0Z (Precisionary Instruments).
(§5) Slices from each individual core (human) or mouse were distributed among the treatment groups to control for variability in the fibrotic injury within the tissue. […] After 3 or 7 days in culture, slices were washed and snap-frozen. Viability of sentinel slices on Days 0/1 and 3/7 was determined using WST-1 Cell Proliferation Reagent (Sigma 5015944001; St Louis, MO, USA).
(§6) For all figures (except Fig. 2B, Fig. S2, and Fig. S4), snap-frozen tissue slices were incubated in one-third RLT buffer (Qiagen #79216; Venlo, Netherlands) supplemented with 2 mg/ml proteinase K (Sigma-Aldrich #3115887001; St Louis, MO, USA) at 55 °C for 2 h 45 min, with periodic vortexing to generate ribonucleic acid (RNA)-compatible tissue lysate. This lysate was incubated overnight with probes from a custom fibrosis gene panel and NanoString PlexSet reagents (Table S2). The following day, samples were analyzed on a NanoString nCounter SPRINT Profiler (NanoString; Seattle, WA, USA). Messenger RNA (mRNA) counts were normalized to housekeeping genes (GUSB, HPRT1, RPLP0, and/or POLR1B) and total mRNA counts, relative to vehicle-treated control from the same experiment, are reported.
For Figs. 2B, S2, and S4, RNA purification and qPCR were performed by Transcriptic, Inc. (Menlo Park, CA, USA) using a proprietary automated protocol. Briefly, RNA was purified on a KingFisher Flex system (Thermo Fisher) and qPCR was performed on a Bio-Rad CFX96 (Bio-Rad; Hercules, CA, USA) with TaqMan primers/probes (Thermo Fisher) listed in Table S3. Ct values were normalized to housekeeping genes (Rn18sRn45s and Hprt) and reported as ddCT and fold change versus the vehicle-treated samples.

[3] = system: αvβ1-induced TGF-β activation; experiment: TGF-β co-culture assay, CHO-αv cells with MLEC luciferase reporter cells; type: cell-based, human; details: integrin αvβ1
Description: as §1

human integrin αvβ5 = biological target: T3, human integrin αvβ5 (Homo sapiens, UniProt P06756+P18084); experiment: Integrin ligand-binding assay, αvβ5 (vitronectin ligand)
T3 construct: purchased R&D Systems 2528-AV
T3 sequence (P06756 31-992 limits assumed): as the sequence (P06756 31-992 limits assumed) above
T3 sequence (P18084 24-719 limits assumed): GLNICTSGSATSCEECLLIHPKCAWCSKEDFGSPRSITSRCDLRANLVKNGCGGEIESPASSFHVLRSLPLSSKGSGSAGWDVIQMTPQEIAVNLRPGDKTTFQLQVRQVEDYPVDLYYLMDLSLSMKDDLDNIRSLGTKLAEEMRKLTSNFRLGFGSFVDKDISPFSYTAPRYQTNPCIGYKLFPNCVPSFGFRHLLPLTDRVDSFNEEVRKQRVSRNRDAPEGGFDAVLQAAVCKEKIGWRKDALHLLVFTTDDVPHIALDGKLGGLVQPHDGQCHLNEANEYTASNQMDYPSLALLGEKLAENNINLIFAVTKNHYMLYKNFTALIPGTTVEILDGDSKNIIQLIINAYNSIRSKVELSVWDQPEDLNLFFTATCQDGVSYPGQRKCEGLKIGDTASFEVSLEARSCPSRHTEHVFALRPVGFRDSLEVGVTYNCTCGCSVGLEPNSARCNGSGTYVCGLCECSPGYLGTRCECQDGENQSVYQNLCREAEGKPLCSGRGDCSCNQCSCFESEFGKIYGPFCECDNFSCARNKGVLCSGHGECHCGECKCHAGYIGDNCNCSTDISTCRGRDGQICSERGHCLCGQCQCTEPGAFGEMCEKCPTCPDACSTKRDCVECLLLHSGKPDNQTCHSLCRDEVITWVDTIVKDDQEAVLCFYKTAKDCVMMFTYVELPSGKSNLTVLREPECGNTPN
Description: as §2, §3

human integrin αvβ3 = biological target: T4, human integrin αvβ3 (Homo sapiens, UniProt P05106+P06756); experiment: Integrin ligand-binding assay, αvβ3 (vitronectin ligand)
T4 construct: purchased R&D Systems 3050-AV
T4 sequence (P06756 31-992 limits assumed): as the sequence (P06756 31-992 limits assumed) above
T4 sequence (P05106 27-718 limits assumed): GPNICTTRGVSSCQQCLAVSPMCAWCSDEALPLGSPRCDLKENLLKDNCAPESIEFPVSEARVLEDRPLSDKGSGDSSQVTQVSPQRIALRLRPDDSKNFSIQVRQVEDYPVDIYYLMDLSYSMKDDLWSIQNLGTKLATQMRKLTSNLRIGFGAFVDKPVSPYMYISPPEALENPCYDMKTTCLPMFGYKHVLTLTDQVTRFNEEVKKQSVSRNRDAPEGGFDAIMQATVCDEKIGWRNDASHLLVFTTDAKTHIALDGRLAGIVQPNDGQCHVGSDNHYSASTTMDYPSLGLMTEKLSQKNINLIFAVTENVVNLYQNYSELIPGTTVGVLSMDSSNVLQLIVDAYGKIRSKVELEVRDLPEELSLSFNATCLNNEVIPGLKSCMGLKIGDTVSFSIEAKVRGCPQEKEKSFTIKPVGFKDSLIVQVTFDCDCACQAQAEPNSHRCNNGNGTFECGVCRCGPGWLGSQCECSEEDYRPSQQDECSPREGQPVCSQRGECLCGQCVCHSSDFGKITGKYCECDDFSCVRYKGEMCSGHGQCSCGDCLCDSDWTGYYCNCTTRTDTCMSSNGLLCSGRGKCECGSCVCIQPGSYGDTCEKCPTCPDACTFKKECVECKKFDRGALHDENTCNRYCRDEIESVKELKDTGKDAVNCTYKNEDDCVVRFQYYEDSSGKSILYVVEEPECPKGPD
Description: as §2, §3

human integrin αvβ1 = biological target: T5, human integrin αvβ1 (Homo sapiens, UniProt P05556+P06756); experiment: Integrin ligand-binding assay, αvβ1 (fibronectin ligand)
T5 construct: purchased ACROBiosystems or R&D Systems IT1-H52E1 or 6579-AVB
T5 sequence (P06756 31-992 limits assumed): as the sequence (P06756 31-992 limits assumed) above
T5 sequence (P05556 21-728 limits assumed): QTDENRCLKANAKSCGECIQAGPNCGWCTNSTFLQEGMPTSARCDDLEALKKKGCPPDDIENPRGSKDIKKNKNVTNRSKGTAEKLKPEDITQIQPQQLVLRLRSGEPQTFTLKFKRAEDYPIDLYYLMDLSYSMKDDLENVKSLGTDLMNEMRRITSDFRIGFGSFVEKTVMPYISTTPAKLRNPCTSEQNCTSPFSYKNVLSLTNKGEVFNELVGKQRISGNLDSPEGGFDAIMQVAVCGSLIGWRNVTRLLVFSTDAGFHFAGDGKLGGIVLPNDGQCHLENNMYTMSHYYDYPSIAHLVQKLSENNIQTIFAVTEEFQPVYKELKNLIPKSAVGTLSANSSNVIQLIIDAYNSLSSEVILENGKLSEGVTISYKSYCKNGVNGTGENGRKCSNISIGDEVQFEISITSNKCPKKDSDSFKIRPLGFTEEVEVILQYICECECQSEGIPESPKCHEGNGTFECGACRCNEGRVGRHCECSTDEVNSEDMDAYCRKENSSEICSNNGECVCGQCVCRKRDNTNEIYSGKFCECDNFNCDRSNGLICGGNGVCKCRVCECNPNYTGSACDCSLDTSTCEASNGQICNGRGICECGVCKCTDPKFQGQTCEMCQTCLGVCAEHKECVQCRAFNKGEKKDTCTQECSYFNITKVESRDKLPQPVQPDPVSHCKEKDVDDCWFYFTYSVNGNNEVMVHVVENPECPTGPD
Description: as §2, §3

human integrin αvβ8 = biological target: T6, human integrin αvβ8 (Homo sapiens, UniProt P06756+P26012); experiment: Integrin ligand-binding assay, αvβ8 (LAP ligand)
T6 construct: purchased R&D Systems 4135-AV
T6 sequence (P06756 31-992 limits assumed): as the sequence (P06756 31-992 limits assumed) above
T6 sequence (P26012 43-684 limits assumed): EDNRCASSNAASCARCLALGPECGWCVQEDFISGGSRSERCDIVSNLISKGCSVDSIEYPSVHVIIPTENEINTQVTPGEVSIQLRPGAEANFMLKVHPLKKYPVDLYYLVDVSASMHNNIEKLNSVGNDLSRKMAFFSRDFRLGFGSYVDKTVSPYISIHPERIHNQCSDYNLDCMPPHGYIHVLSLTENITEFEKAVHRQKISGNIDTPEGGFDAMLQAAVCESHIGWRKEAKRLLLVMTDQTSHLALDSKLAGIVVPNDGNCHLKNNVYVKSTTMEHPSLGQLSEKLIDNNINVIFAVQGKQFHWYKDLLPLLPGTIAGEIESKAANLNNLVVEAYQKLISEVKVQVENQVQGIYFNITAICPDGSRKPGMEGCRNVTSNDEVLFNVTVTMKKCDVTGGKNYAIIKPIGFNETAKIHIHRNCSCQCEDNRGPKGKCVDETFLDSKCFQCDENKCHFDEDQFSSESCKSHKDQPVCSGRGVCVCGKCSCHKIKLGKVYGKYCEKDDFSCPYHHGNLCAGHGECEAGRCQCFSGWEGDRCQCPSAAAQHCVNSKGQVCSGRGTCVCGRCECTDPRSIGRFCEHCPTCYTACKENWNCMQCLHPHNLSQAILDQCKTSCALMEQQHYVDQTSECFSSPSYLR
Description: as §2, §3

[4] = system: PCLSs prepared from explanted lung tissue from patients with IPF; experiment: Fibrotic gene expression in PCLSs from IPF lung explants; type: cell-based, human
From the text: as §4
Human PCLSs were generated from lung tissue explants from patients with IPF undergoing transplant surgery and cultured based on previously reported methods (E7-E12). Slices of tissue (400 µm) were cut using a Compresstome VF-300-0Z (Precisionary Instruments; Natick, MA, USA).
as §5, §6

[5] = parameters: method as in PMID 25504994; details: patients with IPF; read-out: approximate clinical maximum observed drug concentration (Cmax); cited from earlier work
[6] = 7 days, PLN-74809 200 nM, nintedanib 75 nM, pirfenidone 50 µM, vs DMSO (Fig. 6A)

SMILES: CC(C)(C)c1cc(Br)cc([C@H](CC(=O)O)NC(=O)CNC(=O)c2cc(O)cc(NC3=NCC(O)CN3)c2)c1 (stereo partly shown) [CWHM-12, reference compound]
- Fold selectivity (vs αvβ1) ([1]; TGF-β activation): 159×
- IC50 [1]: 318 nM
- IC50 (human integrin αvβ6): 6.1 nM
- Fold selectivity (vs αvβ1) (human integrin αvβ6; ligand binding): 4.7×
- inhibition of collagen mRNA expression [2]: no additional reduction
- Fold selectivity (vs αvβ1) ([3]; TGF-β activation): 1×
- IC50 [3]: 2 nM
- IC50 (human integrin αvβ5): 5.3 nM
- Fold selectivity (vs αvβ1) (human integrin αvβ5; ligand binding): 4.1×
- IC50 (human integrin αvβ3): 0.7 nM
- Fold selectivity (vs αvβ1) (human integrin αvβ3; ligand binding): 0.5×
- IC50 (human integrin αvβ1): 1.3 nM
- Fold selectivity (vs αvβ1) (human integrin αvβ1; ligand binding): 1×
- IC50 (human integrin αvβ8): 7.3 nM
- Fold selectivity (vs αvβ1) (human integrin αvβ8; ligand binding): 5.6×

SMILES: Cc1cccc(-c2[nH]ncc2-c2ccc(F)c(-c3cnn(CCO)c3)c2)n1 [Compound R-268712, reference compound]
- reduction of COL1A1 mRNA expression ([4]; 7-day incubation, Compound A 471 nM, 3G9 0.5 µg/ml, PLN-74809 1.82 µM, ALK5i R-268712 1 µM, vs vehicle (Fig. 1A)): ~ 80%

SMILES: Cc1cc(C)n(-c2cccc([C@H](CC(=O)O)CN3CC[C@@H](CCc4ccc5c(n4)NCCC5)C3)c2)n1 [GSK3008348, (S)-3-(3-(3,5-Dimethyl-1 H-pyrazol-1-yl)phenyl)-4-((R)-3-(2-(5,6,7,8-tetrahydro-1,8-naphthyridin-2-yl)ethyl)pyrrolidin-1-yl)butanoic acid]
- inhibition of collagen mRNA expression [2]: no additional reduction
- IC50 [3]: 17.4 nM

SMILES: COC(=O)c1ccc2c(c1)NC(=O)/C2=C(\Nc1ccc(N(C)C(=O)CN2CCN(C)CC2)cc1)c1ccccc1 [nintedanib]
- IC50 [2]: 897 nM
- effect on Col1a1 gene expression [2]: did not significantly alter
- concentration for 50% reduction in collagen gene expression relative to concentration approximating Cmax [2]: > 10 ×
- Cmax [5]: ~0.075 µM
- reduction of COL1A1 mRNA expression [4, 6]: no effect

SMILES: Cc1ccc(=O)n(-c2ccccc2)c1 [pirfenidone]
- IC50 [2]: 678000 nM
- effect on Col1a1 gene expression [2]: did not significantly alter
- concentration for 50% reduction in collagen gene expression relative to concentration approximating Cmax [2]: > 10 ×
- Cmax [5]: ~50 µM
- reduction of COL1A1 mRNA expression [4, 6]: no effect
